# Reference: patent US7667052B2 (Eisai R&D Management Co., Ltd., priority 2003, dated 2010)
# pIC50: −log10 of the molar value. Like-named read-outs stand apart in the source and are kept apart here.
# Tested on: transcription from VEGF promoter
# Assay: VEGF transcription-suppressing activity, VEGF-PLAP reporter in U251/1-8 cell
# Assay type: cell-based
# Conditions: Homo sapiens, U-251, U251/1-8 cell, PLAP activity, low oxygen 18 hours
# Summary of the method: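 U251 glioma clone stably carrying a ~2.3 kb human VEGF promoter–secreted PLAP reporter, 4×10^4 cells/well, exposed to 3-fold dilutions of compound for 18 h under low oxygen. Supernatant PLAP read by chemiluminescence at pH 10.0; IC50 = 50% suppression, normoxia 0%, hypoxia 100%.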
structure (smiles),measurement,setting,value
CCC(O)C(C)C1OC1CC(C)/C=C/C=C(\C)C1OC(=O)CC(O)CCC(C)(O)C(OC(C)=O)/C=C/C1C (centres unmarked) [11107B],pIC50,read-out: IC50 values of VEGF transcription-suppressing activity (range given),7.00 to 9.00
same,IC50,read-out: VEGF transcription suppressing activity (IC50: nM),1.8 nM
